Measured values taken from US11406655B2, “Once-daily treatment of pulmonary fibrosis” (Galecto Biotech AB, priority 2015, dated 2022).

Assays:
Galectin-3 = Galectin-3 (Homo sapiens, UniProt P17931); details: 3 mg inhaled dose; from Cmax, mouse lung/circulation ratio and ex-vivo data in human derived macrophages
[1] = First in Human single ascending dose phase I study: safety and tolerability; assay type: in vivo
Description: (§1) This study was a randomized, double-blind, single center, placebo-controlled, single ascending dose (SAD), phase I study to assess the safety, tolerability, PK (pharmacokinetics) and PD (pharmacodynamics) of the compound of formula I in 36 healthy male volunteers (HV's). 6 dose cohorts of 6 subjects were evaluated using a 4:2 ratio (active:placebo). The compound of formula I was delivered to the lungs of HV's using the RS01 Monodose Dry Powder Inhaler (Plastiape) at the following 6 doses: 0.15 mg, 1.5 mg, 3 mg, 10 mg, 20 mg and 50 mg. The 0.15 mg, 1.5 mg and 3 mg dose was a 3% w/w lactose blend, whereas the 10 mg, 20 mg and 50 mg dose was formulated as neat material. The specific capsule filling weights were 5 mg for the 0.15 mg dose, 50 mg for the 1.5 mg dose, 5 mg for the 10 mg dose and 50 mg for the 50 mg dose. HV's were housed overnight and vital signs, EKG, physical exam, urinalysis and laboratory bloods followed for 14 days. PK blood sampling was taken prior to dosing and then at intervals up to 48 hrs post-dose. Plasma samples for drug concentration measurements were analyzed by the Bioanalytical Unit at Simbec (UK). PK variables were determined using the non-compartmental analysis option in the software WinNONLIN 6.3 from Certara based in Princeton, N.J. 08540 (www.certara.com).

[2] = First in Human single ascending dose phase I study: plasma pharmacokinetics after inhalation; assay type: in vivo
Description: as §1

[3] = GLP toxicokinetic studies, murine intravenous dosing; assay type: in vivo
[4] = Particle size (MMAD) of the dry powder used in the study; assay type: physicochemical; details: dry powder of the study in the Experimental section
Description: When the compound of formula (I) is formulated as a dry powder it may be present in a suitable particle size selected from a mean mass aerodynamic diameter (MMAD) between 0.1 and 20 μm, such as a MMAD between 0.5 and 10 μm, such as between 1 and 5 μm, typically between 2 and 3 μm. In the study described in the Experimental section below the MMAD was measured to 2.5 μm.

[5] = Radioisotope studies of lung deposition in mice; assay type: in vivo

Galectin-3, sequence (P17931 whole entry): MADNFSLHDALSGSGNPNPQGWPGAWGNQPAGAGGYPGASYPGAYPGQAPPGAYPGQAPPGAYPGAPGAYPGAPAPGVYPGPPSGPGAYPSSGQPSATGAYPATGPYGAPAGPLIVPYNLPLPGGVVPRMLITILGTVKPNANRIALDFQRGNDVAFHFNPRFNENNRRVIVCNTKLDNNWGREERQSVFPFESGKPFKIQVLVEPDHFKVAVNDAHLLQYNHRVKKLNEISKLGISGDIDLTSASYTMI

SMILES: OC[C@H]1O[C@@H](S[C@@H]2O[C@H](CO)[C@H](O)[C@H](n3cc(-c4cccc(F)c4)nn3)[C@H]2O)[C@H](O)[C@@H](n2cc(-c3cccc(F)c3)nn2)[C@H]1O [compound of formula I, bis (3-deoxy-3-(3-fluorophenyl-1H-1,2,3-triazol-1-yl)-β-D-galactopyranosyl)-sulfane]
- local concentration in the lung in man in excess of that required to suppress Galectin-3 in lung target cells (Galectin-3): 2 fold
- tolerability ([1]; healthy male volunteers, single inhaled dose, all 6 doses (0.15 mg to 50 mg), RS01 dry powder inhaler): extremely well tolerated
- adverse events (severity) ([1]; healthy male volunteers, headache, cough and dose-related parageusia (neat blend only), self-limiting): only mild in nature
- changes from baseline in EKG, vital signs, bloods and urinalysis ([1]; up to 2 weeks post-dose): no significant changes from baseline
- dose dependence of drug concentrations based on Cmax and AUC ([2]; inhaled single ascending doses 0.15-50 mg): exhibited dose proportionality
- Tmax ([2]; male, human, inhaled or intranasal, inhaled single dose, independent of dose): 0.8 to 3 h
- half-life ([2]; male, human, inhaled or intranasal, inhaled single dose, read-out: t½ (converted)): 720 min
- fraction of compound found in the feces [3]: ~90%
- mean mass aerodynamic diameter (MMAD) [4]: 2.5 μm
- concentration in the lung relative to the circulation [5]: fifty times greater
